According to doi:10.1101/2025.07.08.663693v1 (biorxiv, 2025):

Tests used:
hSLIT2-His = biological target: T1, hSLIT2-His (Homo sapiens, UniProt O94813); experiment: TRIC/MST dose response; assay type: binding
T1 sequence (O94813 31-1529): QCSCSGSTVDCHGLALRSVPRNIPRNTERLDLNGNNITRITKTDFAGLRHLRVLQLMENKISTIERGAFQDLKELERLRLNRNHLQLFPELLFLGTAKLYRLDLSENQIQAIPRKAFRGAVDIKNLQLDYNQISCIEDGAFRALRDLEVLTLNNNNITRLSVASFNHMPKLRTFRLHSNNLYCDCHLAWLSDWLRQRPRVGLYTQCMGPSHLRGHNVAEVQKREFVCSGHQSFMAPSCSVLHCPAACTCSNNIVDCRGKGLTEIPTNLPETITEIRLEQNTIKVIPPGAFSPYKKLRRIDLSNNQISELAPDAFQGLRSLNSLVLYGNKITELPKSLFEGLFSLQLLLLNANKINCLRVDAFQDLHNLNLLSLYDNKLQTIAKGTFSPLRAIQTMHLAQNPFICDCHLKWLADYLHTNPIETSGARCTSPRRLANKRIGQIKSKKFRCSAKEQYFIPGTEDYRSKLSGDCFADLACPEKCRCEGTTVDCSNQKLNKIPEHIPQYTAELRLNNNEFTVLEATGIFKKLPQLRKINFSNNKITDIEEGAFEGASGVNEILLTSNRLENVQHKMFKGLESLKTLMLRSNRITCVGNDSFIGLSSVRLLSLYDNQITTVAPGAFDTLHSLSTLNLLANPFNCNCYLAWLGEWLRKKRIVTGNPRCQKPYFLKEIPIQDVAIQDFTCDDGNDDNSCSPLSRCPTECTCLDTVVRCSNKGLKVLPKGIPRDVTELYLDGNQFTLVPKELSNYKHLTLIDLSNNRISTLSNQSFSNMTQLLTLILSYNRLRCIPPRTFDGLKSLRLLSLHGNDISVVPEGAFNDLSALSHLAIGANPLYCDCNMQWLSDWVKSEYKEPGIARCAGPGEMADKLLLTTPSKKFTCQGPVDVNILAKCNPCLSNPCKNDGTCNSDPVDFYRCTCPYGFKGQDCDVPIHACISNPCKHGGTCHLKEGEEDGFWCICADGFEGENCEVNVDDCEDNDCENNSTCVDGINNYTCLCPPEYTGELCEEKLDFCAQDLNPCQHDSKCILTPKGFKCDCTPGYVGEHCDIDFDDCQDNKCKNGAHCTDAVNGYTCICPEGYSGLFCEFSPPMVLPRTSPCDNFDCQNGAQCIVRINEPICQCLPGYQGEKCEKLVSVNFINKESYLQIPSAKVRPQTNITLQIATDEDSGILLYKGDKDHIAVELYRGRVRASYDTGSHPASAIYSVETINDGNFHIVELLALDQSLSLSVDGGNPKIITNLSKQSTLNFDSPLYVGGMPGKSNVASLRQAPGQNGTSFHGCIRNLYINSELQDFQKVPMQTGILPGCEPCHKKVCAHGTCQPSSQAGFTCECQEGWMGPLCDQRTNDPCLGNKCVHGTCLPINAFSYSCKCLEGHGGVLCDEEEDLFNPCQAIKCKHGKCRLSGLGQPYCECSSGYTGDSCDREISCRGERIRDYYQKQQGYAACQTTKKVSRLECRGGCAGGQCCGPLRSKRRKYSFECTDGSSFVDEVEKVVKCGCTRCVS

SLIT2/ROBO1 = biological target: T2, SLIT2/ROBO1 (Homo sapiens, UniProt O94813); experiment: TR-FRET SLIT2/ROBO1 interaction inhibition; assay type: binding
T2 sequence (O94813 31-1529): T1 sequence (O94813 31-1529)
T2 sequence (Q9Y6N7 26-897 partner limits assumed): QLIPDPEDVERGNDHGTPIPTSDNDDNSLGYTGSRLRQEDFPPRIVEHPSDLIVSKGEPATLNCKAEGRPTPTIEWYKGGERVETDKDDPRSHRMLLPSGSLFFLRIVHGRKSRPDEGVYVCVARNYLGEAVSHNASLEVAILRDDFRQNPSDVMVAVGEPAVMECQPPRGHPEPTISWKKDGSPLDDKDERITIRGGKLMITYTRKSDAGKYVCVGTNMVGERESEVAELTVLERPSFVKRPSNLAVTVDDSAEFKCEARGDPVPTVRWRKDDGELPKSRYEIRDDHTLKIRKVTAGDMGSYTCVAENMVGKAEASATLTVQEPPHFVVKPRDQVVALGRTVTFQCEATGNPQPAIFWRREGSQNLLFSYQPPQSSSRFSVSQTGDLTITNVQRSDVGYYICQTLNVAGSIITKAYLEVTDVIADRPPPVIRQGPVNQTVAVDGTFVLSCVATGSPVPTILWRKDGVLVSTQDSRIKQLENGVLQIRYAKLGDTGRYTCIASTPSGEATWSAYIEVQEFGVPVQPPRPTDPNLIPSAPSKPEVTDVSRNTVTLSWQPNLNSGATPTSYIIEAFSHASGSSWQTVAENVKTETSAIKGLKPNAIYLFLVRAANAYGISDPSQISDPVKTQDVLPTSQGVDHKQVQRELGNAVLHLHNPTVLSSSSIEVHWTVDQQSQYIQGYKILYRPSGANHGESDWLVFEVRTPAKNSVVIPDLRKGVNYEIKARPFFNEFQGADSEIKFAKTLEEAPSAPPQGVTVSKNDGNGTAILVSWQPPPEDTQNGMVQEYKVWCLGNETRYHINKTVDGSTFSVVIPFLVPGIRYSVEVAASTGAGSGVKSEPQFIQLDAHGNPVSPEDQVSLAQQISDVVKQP

Structure (SMILES): C=C(c1ccc(C(=O)O)cc1)c1cc2c(cc1C)C(C)(C)CCC2(C)C [bexarotene]
- Kd (hSLIT2-His): 2.62 µM
- IC50 (SLIT2/ROBO1): 22.8 ± 3.85 µM
